This note sets out measurements from article PMC9033836, “Determination of key residues in MRGPRX2 to enhance pseudo-allergic reactions induced by fluoroquinolones” (Scientific Reports, 2022).

Assay in all cases: intracellular calcium mobilisation (FLIPR Tetra), transiently transfected HEK293
Common to all, as to format: cell-based
A general note: Calcium flux is commonly read through the fluorescence of an indicator in the cells.

The target in assay [1] is T1, dog MRGPRX2 (Canis lupus, UniProt A0A4Y5P885).
T1 construct: gene in pcDNA3.1(+), transiently transfected HEK293 cells (JCRB)
T1 sequence (A0A4Y5P885 1-417): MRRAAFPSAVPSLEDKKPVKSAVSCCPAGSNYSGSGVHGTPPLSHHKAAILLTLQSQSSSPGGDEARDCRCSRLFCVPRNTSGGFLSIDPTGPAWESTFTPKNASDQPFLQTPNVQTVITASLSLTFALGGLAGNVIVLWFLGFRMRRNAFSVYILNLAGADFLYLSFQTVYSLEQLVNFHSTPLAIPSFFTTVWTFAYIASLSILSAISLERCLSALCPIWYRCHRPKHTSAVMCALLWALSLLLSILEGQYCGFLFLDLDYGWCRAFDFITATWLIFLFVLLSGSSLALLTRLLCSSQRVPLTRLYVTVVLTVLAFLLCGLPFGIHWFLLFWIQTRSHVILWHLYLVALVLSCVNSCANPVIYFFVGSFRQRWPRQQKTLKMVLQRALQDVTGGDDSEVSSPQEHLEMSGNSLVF
The following applies: read-out: EC50 (μg/mL) ± SD (P value) / Dog / Wild type (converted). The text has this: intracellular calcium mobilisation (FLIPR Tetra), transiently transfected HEK293 on dog MRGPRX2

In assay [2] the target is T2, human MRGPRX2 (Homo sapiens, UniProt Q96LB1).
T2 construct: full-length gene in pcDNA3.1(+), transiently transfected HEK293 cells (JCRB)
T2 sequence (Q96LB1 1-330): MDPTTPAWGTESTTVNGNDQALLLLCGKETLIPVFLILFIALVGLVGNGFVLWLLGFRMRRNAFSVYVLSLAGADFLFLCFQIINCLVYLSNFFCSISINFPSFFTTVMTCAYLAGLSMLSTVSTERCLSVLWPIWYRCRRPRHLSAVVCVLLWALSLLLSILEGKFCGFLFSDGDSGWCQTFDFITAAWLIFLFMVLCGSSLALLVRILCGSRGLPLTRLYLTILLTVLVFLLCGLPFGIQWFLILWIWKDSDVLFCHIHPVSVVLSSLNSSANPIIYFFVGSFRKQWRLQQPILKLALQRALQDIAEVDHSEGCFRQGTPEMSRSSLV
The following applies: read-out: EC50 (μg/mL) ± SD (P value) / Human / Wild type (converted). The text has this: (§1) intracellular calcium mobilisation (FLIPR Tetra), transiently transfected HEK293 on human MRGPRX2

The target of assay [3] is T3, human MRGPRX2 (Homo sapiens, UniProt Q96LB1, F78Y).
T3 construct: full-length gene in pcDNA3.1(+), transiently transfected HEK293 cells (JCRB)
T3 sequence (Q96LB1 1-330 F78Y): T2 sequence (Q96LB1 1-330) with F78Y
The following applies: read-out: EC50 (μg/mL) ± SD (P value) / Human / F78Y (converted).
Description: as §1

For assay [4], the target named is T4, human MRGPRX2 (Homo sapiens, UniProt Q96LB1, F78Y/M109W).
T4 construct: full-length gene in pcDNA3.1(+), transiently transfected HEK293 cells (JCRB)
T4 sequence (Q96LB1 1-330 F78Y/M109W): T2 sequence (Q96LB1 1-330) with F78Y, M109W
The following applies: read-out: EC50 (μg/mL) ± SD (P value) / Human / F78Y/M109W (converted).
Description: as §1

Assay [5] concerns the target T5, human MRGPRX2 (Homo sapiens, UniProt Q96LB1, M109W).
T5 construct: full-length gene in pcDNA3.1(+), transiently transfected HEK293 cells (JCRB)
T5 sequence (Q96LB1 1-330 M109W): T2 sequence (Q96LB1 1-330) with M109W
The following applies: read-out: EC50 (μg/mL) ± SD (P value) / Human / M109W (converted).
Description: as §1

The target in assay [6] is T2, human MRGPRX2. The following applies: highest concentration of fluoroquinolones 1000 µg/mL; HBSS pH 7.4, 20 mM HEPES, 0.05% BSA.
For assay [7], the target named is T1, dog MRGPRX2. The following applies: highest concentration of fluoroquinolones 1000 µg/mL; HBSS pH 7.4, 20 mM HEPES, 0.05% BSA.

Substitutions are numbered along the chain they refer to.

As to `O=C(O)c1cn(C2CC2)c2cc(N3CCNCC3)c(F)cc2c1=O` [CPFX], at dog MRGPRX2 [1], the EC50 was 36.2 µM.

With `COc1c(N2CCNC(C)C2)c(F)cc2c(=O)c(C(=O)O)cn(C3CC3)c12` (stereo not shown) [GFLX], the EC50 at dog MRGPRX2 [1] was 258 µM; at human MRGPRX2 [2], 0.959 mM; at human MRGPRX2 [3], 0.666 mM; on human MRGPRX2 [4], 197 µM; at human MRGPRX2 [5] it was 266 µM.

With `C[C@H]1COc2c(N3CCN(C)CC3)c(F)cc3c(=O)c(C(=O)O)cn1c23` [LVFX], the EC50 is 249 µM at dog MRGPRX2 [1]; 1.8 mM on human MRGPRX2 [2]; 1.38 mM on human MRGPRX2 [3]; 498 µM on human MRGPRX2 [4]; 581 µM on human MRGPRX2 [5].

As to `C[C@H]1COc2c(C3(N)CC3)c(F)cc3c(=O)c(C(=O)O)cn1c23` [PZFX], the “intracellular calcium mobilisation (FLIPR Tetra), transiently transfected HEK293” value at human MRGPRX2 [6] and at dog MRGPRX2 [7] was “PZFX ... did not induce intracellular calcium mobilisation in any of the cells” throughout.
